# From PMC12736495, “First Insights into the Anti-Inflammatory Potential of Colliguaja odorifera Molina Leaf Extracts and Their Isolated Phenolic Compounds” (Plants, 2025)
# “Also recorded” adds a separate entry of the source. Where two headings read alike, the source gives them in different places.
# Legend:
# [1] = molecular target: T1, sPLA2 (Type V) (Homo sapiens, UniProt P39877); assay: Screening assay for phospholipase A2 inhibitors (Type V), Cayman kit; type: biochemical
# T1 construct: purchased Cayman Chemical Co. (Ann Arbor, MI, USA)
# T1 sequence (P39877 21-138): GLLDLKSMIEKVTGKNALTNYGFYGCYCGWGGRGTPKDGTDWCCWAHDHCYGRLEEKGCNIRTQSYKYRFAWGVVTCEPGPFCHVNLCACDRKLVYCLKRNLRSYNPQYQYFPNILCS
# Procedure: The phospholipase A2 inhibitory activity was determined using the phospholipase A2 (sPLA2) inhibitor detection assay kit (Type V). This kit was purchased from Cayman Chemical Co. (Ann Arbor, MI, USA). Briefly, 10 μL of C. odorifera extracts (HA-E, EA-E, B-E, and W-E, separately) were pre-incubated with 25 mM Tris-HCl buffer at pH 7.5, including 10 μL of phospholipase A2. The reaction was initiated by adding 200 μL of a 1.66 mM diheptanoyl thio-PC substrate solution. The plate was then shaken for 30 s and incubated at 25 °C for 15 min. Then, 10 µL of 5,5′-dithiobis(2-nitrobenzoic acid) (DTNB) was added to stop the enzymatic reaction and allow color development. The reaction mixture was stirred on a shaker for one minute, and the absorbance was subsequently measured at 405 nm with a spectrophotometer (METASH, UV-1500B; Shanghai Metash Instrument Co., Shanghai, China). According to the kit instructions, the sPLA2 activity was evaluated with extract concentrations ranging from 27 to 108 μg/mL. Arachidonic thioester phosphatidylcholine was used as the positive control. […] All tests were performed in triplicate.
# [2] = molecular target: T2, lipoxygenase Type I-B LOX A from Glycine max L. (soybean) (15-LOX) (Glycine max, UniProt P08170); assay: Inhibitory LOX activity assay (linoleic acid, absorbance at 234 nm); type: biochemical
# T2 construct: purchased Sigma-Aldrich (Steinheim, Germany)
# T2 sequence (P08170 1-839): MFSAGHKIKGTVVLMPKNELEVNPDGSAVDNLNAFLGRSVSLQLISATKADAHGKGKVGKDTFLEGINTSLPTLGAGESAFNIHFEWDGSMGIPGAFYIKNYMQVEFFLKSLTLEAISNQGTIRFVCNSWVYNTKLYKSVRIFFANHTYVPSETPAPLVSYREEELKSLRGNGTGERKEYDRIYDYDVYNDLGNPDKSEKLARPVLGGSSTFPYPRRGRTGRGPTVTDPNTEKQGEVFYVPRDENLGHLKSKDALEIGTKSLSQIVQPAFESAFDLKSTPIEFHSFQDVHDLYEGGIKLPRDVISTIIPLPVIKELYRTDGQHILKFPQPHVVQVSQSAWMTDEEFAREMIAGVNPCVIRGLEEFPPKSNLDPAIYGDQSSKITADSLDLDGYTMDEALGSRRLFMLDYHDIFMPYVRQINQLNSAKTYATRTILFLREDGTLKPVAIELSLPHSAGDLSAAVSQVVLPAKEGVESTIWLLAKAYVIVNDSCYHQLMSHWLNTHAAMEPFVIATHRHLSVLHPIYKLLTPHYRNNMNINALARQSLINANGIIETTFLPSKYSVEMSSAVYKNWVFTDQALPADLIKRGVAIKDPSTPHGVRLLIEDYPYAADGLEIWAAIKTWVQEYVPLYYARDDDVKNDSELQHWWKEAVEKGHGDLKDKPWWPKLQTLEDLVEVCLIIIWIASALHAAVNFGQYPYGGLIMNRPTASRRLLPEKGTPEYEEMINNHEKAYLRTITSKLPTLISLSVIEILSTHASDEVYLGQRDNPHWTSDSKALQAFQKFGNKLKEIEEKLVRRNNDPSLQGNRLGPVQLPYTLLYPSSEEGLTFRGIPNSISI
# Procedure: The inhibitory LOX assay was conducted according to the procedure established by Lyckander and Malterud. The lipoxygenase Type I-B LOX A from Glycine max L. (soybean) (CAS: 9029-60-1) (15-LOX) with an optimal pH of 8.0–9.0 and linoleic acid used here, was obtained from Sigma-Aldrich (Steinheim, Germany).
# A linoleic acid ethanol solution (268 µM) was prepared, and 50 µL of this solution was used to prepare concentrations ranging from 0.6 to 26 µg/mL for the HA-E sample, and from 0.6 to 12.9 µg/mL for the EA-E and B-E samples. Then the volume for each concentration was adjusted to 1 mL with 200 mM borate buffer (pH 8.75) containing 0.005% Tween 80. The reaction was initiated by adding 1.5 µL of Soybean 1-LOX (948 U), equivalent to 0.054 g/mL. Enzymatic activity was monitored by measuring the increase in absorbance at 234 nm for 4 min at 37 °C. Each enzyme measurement for each dilution was repeated three times. All tests were performed in triplicate. For this purpose, three samples were taken from each extract. For each of them, enzymatic activity was determined as described above. […] The percentage inhibition of enzyme activity was calculated by comparing the absorbance of the samples to that of the blank, using Equation (1), where A0 is the absorbance of the blank, and A1 is the absorbance of the sample.% inhibition = [(A0 − A1)/A0] × 100(1)
# The percentage of inhibition was plotted against sample concentration to calculate the IC50 value.
# [3] = molecular target: Lipoxygenase; details: cited from earlier work
# [4] = molecular target: T3, hyaluronidase (Bos taurus, UniProt Q2YDK3); assay: Hyaluronidase inhibition assay (turbidimetric kit); type: biochemical; details: sodium hyaluronate substrate, 37 °C, mean ± s.d.
# T3 sequence (Q2YDK3 36-553): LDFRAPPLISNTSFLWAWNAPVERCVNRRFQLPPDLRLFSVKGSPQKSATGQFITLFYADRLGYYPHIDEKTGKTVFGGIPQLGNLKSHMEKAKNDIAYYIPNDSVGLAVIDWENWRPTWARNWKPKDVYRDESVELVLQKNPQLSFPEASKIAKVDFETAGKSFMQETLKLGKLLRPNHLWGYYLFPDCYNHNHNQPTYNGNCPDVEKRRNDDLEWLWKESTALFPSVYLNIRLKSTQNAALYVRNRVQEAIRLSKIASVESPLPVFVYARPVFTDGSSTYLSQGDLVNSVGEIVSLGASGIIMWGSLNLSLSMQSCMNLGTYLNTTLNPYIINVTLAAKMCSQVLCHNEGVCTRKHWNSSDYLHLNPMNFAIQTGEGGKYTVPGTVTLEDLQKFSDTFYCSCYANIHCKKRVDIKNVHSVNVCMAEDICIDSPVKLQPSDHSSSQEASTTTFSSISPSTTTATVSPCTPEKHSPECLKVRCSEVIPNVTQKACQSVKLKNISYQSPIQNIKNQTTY
# Procedure: The hyaluronidase inhibitory activity of the extracts was assessed using the Hyaluronidase Inhibitor Detection Assay Kit purchased from Sigma-Aldrich (St. Louis, MO, USA), which employs a two-step turbidimetric reaction to measure the amount of hyaluronic acid hydrolyzed by the enzyme, where the decrease in turbidity is proportional to the enzymatic activity of the sample. The assay was conducted according to the manufacturer’s instructions, with slight modifications, using 96-well plates. Briefly, a reaction mixture containing 10 μL of C. odorifera extract (HA-E, EA-E, B-E, and W-E, separately) and 20 μL of the enzyme (at a concentration of 100 U/mL in incubation buffer) was mixed in each well. After a 15 min incubation at 37 °C, a 20 μL substrate solution (0.1% sodium hyaluronate) was added to each well. The plates were incubated at 37 °C for an additional 20 min. Then, non-hydrolyzed […] was precipitated by adding 250 μL of 2.5% cetyltrimethylammonium bromide (CTAB). […] The intensity of complex formation was measured by absorbance at 630 nm in a spectrophotometer (METASH, UV-1500B). […] The percentage of hyaluronidase inhibition was calculated using Equation (2), where AS is the absorbance of the solution with the sample extract, AC is the absorbance of the solution without inhibitor, and AT is the absorbance of the enzyme.Inhibition = (AS − AC)/(AT − AC) × 100(2)
# [5] = LOX Inhibition (IC50 µg/mL), soybean 15-LOX, linoleic acid substrate, borate buffer pH 8.75, 37 °C, mean ± s.d.
# [6] = anti-LOX activity, concentration for 50% inhibition in µM, same LOX IC50 expressed in µM
smiles,measurement,setting,value
O=C(O)c1cc(O)c(O)c(O)c1 [Gallic acid],IC50,[1],65.6 µM
same,IC50,[2]; [5],2.17 µM
same,IC50,[2]; [6],2.2 µM
COc1ccc2c(c1)c(CC(=O)O)c(C)n2C(=O)c1ccc(Cl)cc1 [Indomethacin],Lipoxygenase inhibition IC50,[3]; extract and its control,7.9 µg/mL
COC(=O)c1cc(O)c(O)c(O)c1 [Methyl gallate],IC50,[2]; [5],330 µM
O=C(O)C1=C[C@@H](O)[C@@H](O)[C@H](O)C1 [Shikimic acid],sPLA2 Inhibition (IC50 µg/mL),"[1]; sPLA2-V, diheptanoyl thio-PC substrate, 25 °C, mean ± s.d.",did not elicit anti-sPLA2-V; also recorded: not active
same,HA Inhibition (IC50 µg/mL),[4],did not elicit anti-sPLA2-V and anti-hyaluronidase activities
same,IC50,[2]; [5],5.57 µM
same,IC50,[2]; [6],5.6 µM
CC(C)Cc1ccc(C(C)C(=O)O)cc1 (centres unmarked) [Ibuprofen],Lipoxygenase inhibition IC50,[3]; extract and its control,69.7 µg/mL
CCOC(=O)c1cc(O)c(O)c(O)c1 [Ethyl gallate],IC50,"[2]; soybean 15-LOX, linoleic acid substrate, borate buffer pH 8.75, 37 °C, mean ± s.d., read-out: LOX Inhibition (IC50 µg/mL) (converted)",329 µM
O=c1cc(-c2ccccc2)oc2cc(O)c(O)c(O)c12 [Baicalein],Lipoxygenase inhibition IC50,[3]; Euphorbiaceae extract and its control,22.4 µg/mL
same,Lipoxygenase inhibition IC50,[3]; extract and its control,0.15 µg/mL
"O=c1c(O)c(-c2ccc(O)c(O)c2)oc2cc(O)cc(O)c12 [Quercetin, reference compound]",IC50,"[1]; sPLA2-V, diheptanoyl thio-PC substrate, 25 °C, mean ± s.d., read-out: sPLA2 Inhibition (IC50 µg/mL) (converted)",77.7 µM
